ChEMBL document CHEMBL1137829, “In vitro anti-parasitic activity of Cyclosporin A analogs on Trypanosoma cruzi” (Bioorg Med Chem Lett, 2004)

What was measured:
[1] = Inhibition of Peptidyl-prolyl cis-trans isomerase Trypanosoma cruzi cyclophilin (CL Brener strain, p19)
Trypanosoma cruzi [2] = test: Effective concentration required for the lysis of Trypanosoma cruzi trypomastigotes in blood stream after 24 hours of treatment; assay type: functional, organism-based
Trypanosoma cruzi [3] = test: Compound was tested for the inhibition of Trypanosoma cruzi epimastigote growth after 72 hours of treatment; assay type: functional, organism-based

| Compound | IC50 [1] [µM] | EC50 (Trypanosoma cruzi [2]) [µM] | IC50 (Trypanosoma cruzi [3]; read-out: IC50) [µM] | IC50 (Trypanosoma cruzi [3]) [µM] |
| --- | --- | --- | --- | --- |
| C/C=C/CC(C)[C@@H](O)[C@H]1C(=O)N[C@@H](CC)C(=O)N(C)CC(=O)N(C)[C@@H](CC(C)C)C(=O)N[C@@H](C(C)C)C(=O)N(C)[C@@H](CC(C)C)C(=O)N[C@@H](C)C(=O)N[C@H]([C@H](C)O)C(=O)N(C)[C@@H](CC(C)C)C(=O)N(C)[C@@H](CC(C)C)C(=O)N(C)[C@@H](C(C)C)C(=O)N1C (stereo not given in full) | 0.0169 | 13.4 | 6.93 | – |
| CC[C@@H]1NC(=O)[C@H]([C@H](O)/C(C)=C\CCCN=[N+]=[N-])N(C)C(=O)[C@H](C(C)C)N(C)C(=O)[C@H](CC(C)C)N(C)C(=O)[C@H](CC(C)C)N(C)C(=O)[C@@H](C)NC(=O)[C@H](C)NC(=O)[C@H](CC(C)C)N(C)C(=O)[C@H](C(C)C)NC(=O)[C@H](CC(C)C)N(C)C(=O)CN(C)C1=O | 0.0232 | 7.98 | 10.6 | – |
| CC[C@@H]1NC(=O)[C@H]([C@H](O)C(C)C/C=C/c2ccccc2)N(C)C(=O)[C@H](C(C)C)N(C)C(=O)[C@H](CC(C)C)N(C)C(=O)[C@H](CC(C)C)N(C)C(=O)[C@@H](C)NC(=O)[C@H](C)NC(=O)[C@H](CC(C)C)N(C)C(=O)[C@H](C(C)C)NC(=O)[C@H](CC(C)C)N(C)C(=O)CN(C)C1=O (stereo not given in full) | 0.0125 | 0.97 | 0.82 | – |
| CC[C@@H]1NC(=O)[C@H]([C@H](O)C(C)CCCc2ccccc2)N(C)C(=O)[C@H](C(C)C)N(C)C(=O)[C@H](CC(C)C)N(C)C(=O)[C@H](CC(C)C)N(C)C(=O)[C@@H](C)NC(=O)[C@H](C)NC(=O)[C@H](CC(C)C)N(C)C(=O)[C@H](C(C)C)NC(=O)[C@H](CC(C)C)N(C)C(=O)CN(C)C1=O (stereo not given in full) | 0.0133 | 2.66 | 3.41 | – |
| C/C=C/C[C@@H](C)[C@@H](O)[C@H]1C(=O)N[C@@H](CC)C(=O)N(C)CC(=O)N(C)[C@@H](CC(C)C)C(=O)N[C@@H](C(C)C)C(=O)N(C)[C@@H](CC(C)C)C(=O)N[C@@H](C)C(=O)N[C@H](C)C(=O)N(C)[C@@H](CC(C)C)C(=O)N(C)[C@@H](CC(C)C)C(=O)N(C)[C@@H](C(C)C)C(=O)N1C [CYCLOSPORINE] | – | 7.19 | – | 5.39 |

The remaining compounds from weak to strong by EC50 (Trypanosoma cruzi [2]), led by results:

| IC50 [1] [µM] | EC50 (Trypanosoma cruzi [2]) [µM] | IC50 (Trypanosoma cruzi [3]; read-out: IC50) [µM] | IC50 (Trypanosoma cruzi [3]) [µM] | Compound |
| --- | --- | --- | --- | --- |
| 0.0193 | 153 | 11.4 | – | CCC/C=C(/C)[C@@H](O)[C@H]1C(=O)N[C@@H](CC)C(=O)N(C)CC(=O)N(C)[C@@H](CC(C)CO)C(=O)N[C@@H](C(C)C)C(=O)N(C)[C@@H](CC(C)C)C(=O)N[C@@H](C)C(=O)N[C@H](C)C(=O)N(C)[C@@H](CC(C)C)C(=O)N(C)[C@@H](CC(C)C)C(=O)N(C)[C@@H](C(C)C)C(=O)N1C (stereo not given in full) |
| 0.0255 | 76.1 | 33.8 | – | CC[C@@H]1NC(=O)[C@H]([C@H](O)/C(C)=C\CCCOC)N(C)C(=O)[C@H](C(C)C)N(C)C(=O)[C@H](CC(C)C)N(C)C(=O)[C@H](CC(C)C)N(C)C(=O)[C@@H](C)NC(=O)[C@H](C)NC(=O)[C@H](CC(C)C)N(C)C(=O)[C@H](C(C)C)NC(=O)[C@H](CC(C)C)N(C)C(=O)CN(C)C1=O |
| – | 58.6 | 7.64 | – | CC[C@@H]1NC(=O)[C@H]([C@H](O)/C(C)=C\CCC(=O)OC(C)C)N(C)C(=O)[C@H](C(C)C)N(C)C(=O)[C@H](CC(C)C)N(C)C(=O)[C@H](CC(C)C)N(C)C(=O)[C@@H](C)NC(=O)[C@H](C)NC(=O)[C@H](CC(C)C)N(C)C(=O)[C@H](C(C)C)NC(=O)[C@H](CC(C)C)N(C)C(=O)CN(C)C1=O |
| 0.0221 | 36.8 | 18.4 | – | CCC/C=C(/C)[C@@H](O)[C@H]1C(=O)N[C@@H]([C@@H](C)OCCCO)C(=O)N(C)CC(=O)N(C)[C@@H](CC(C)C)C(=O)N[C@@H](C(C)C)C(=O)N(C)[C@@H](CC(C)C)C(=O)N[C@@H](C)C(=O)N[C@H](C)C(=O)N(C)[C@@H](CC(C)C)C(=O)N(C)[C@@H](CC(C)C)C(=O)N(C)[C@@H](C(C)C)C(=O)N1C |
